In this experiment the target is Adenosylhomocysteinase (Homo sapiens) (UniProt P23526). The note with it: Bos taurus.
Chain of Adenosylhomocysteinase (Homo sapiens) (P23526 2-432 limits assumed): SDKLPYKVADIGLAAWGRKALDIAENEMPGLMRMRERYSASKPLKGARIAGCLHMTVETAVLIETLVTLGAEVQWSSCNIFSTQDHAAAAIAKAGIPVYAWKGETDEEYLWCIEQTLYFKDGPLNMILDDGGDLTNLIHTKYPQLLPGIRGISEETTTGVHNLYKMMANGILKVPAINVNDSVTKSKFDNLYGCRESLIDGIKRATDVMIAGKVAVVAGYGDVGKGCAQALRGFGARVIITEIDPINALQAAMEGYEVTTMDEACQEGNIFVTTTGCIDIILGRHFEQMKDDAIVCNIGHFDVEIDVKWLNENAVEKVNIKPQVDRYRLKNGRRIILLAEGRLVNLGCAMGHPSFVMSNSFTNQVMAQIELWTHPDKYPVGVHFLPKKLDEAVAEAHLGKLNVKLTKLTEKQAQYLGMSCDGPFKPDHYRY

Description: NAD+ content of the enzyme tetramer was measured by HPLC on a C 18 reverse-phase column

Consider `Nc1ncnc2c1ncn2[C@@H]1C=C(CO)[C@@H](O)[C@H]1O`, for which the NAD content (M (M of enzyme)-1) is 0.
In the case of `Nc1ncnc2c1ncn2[C@@H]1C=C[C@@H](O)[C@H]1O` it was 0.19.

The values are drawn from ChEMBL document CHEMBL1124048, “9-(trans-2',trans-3'-dihydroxycyclopent-4'-enyl) derivatives of adenine and 3-deazaadenine: potent inhibitors of bovine liver S-adenosylhomocysteine hydrolase” (J Med Chem, 1988).
